Reference: US10004777B2, “Bioactive compositions from Theacea plants and processes for their production and use” (ISP Investments Inc., priority 2004, dated 2018)

Assay: Superoxide scavenging activity (xanthine oxidase / cytochrome c reduction)
Type: biochemical
From the text: Method 7: Method for Determination of Superoxide Scavenging Activity. The enzymatic system, which uses xanthine oxidase (a purified enzyme preparation produced by “Sigma”), was used to generate superoxide anions in high yield and in a controlled fashion. The conversion of xanthine to […] by this enzyme generates amounts of superoxide anions and reduction of ferricytochrome c to ferrocytochrome c was used as a sensitive measure of superoxide levels. The measurements of ferrocytochrome c level (550 nm), when tested bioactive compositions were added to the reaction system, allow for determination of their superoxide scavenging activity. The final concentrations per well were for cytochrome c 75 μM, xanthine 425 μm/L, and xanthine oxidase 10 mU/ml.

O=C(/C=C/c1ccc(O)c(O)c1)O[C@H](Cc1ccc(O)c(O)c1)C(=O)O [rosmarinic acid]
ICR50 of positive control: 26.5 µg/mL
